# Reference: PubChem BioAssay (NCI)
#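 The compound was tested at five concentrations on cells cultured in 96-well plates, with a 48-hour exposure period. TGI marks complete inhibition of growth.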
# What was measured:
# Assay in all cases: inhibition of tumour cell growth, NCI panel, 48 h
# 786-0 renal = tested on: 786-0 renal
# A498 renal = tested on: A498 renal
# A549 NSCLC = tested on: A549 NSCLC
# ACHN renal = tested on: ACHN renal
# BT-549 breast = tested on: BT-549 breast
# CAKI-1 renal = tested on: CAKI-1 renal
# CCRF-CEM leukemia = tested on: CCRF-CEM leukemia
# COLO 205 colon = tested on: COLO 205 colon
# DU-145 prostate = tested on: DU-145 prostate
# EKVX NSCLC = tested on: EKVX NSCLC
# HCC-2998 colon = tested on: HCC-2998 colon
# HCT-116 colon = tested on: HCT-116 colon
# HCT-15 colon = tested on: HCT-15 colon
# HL-60(TB) leukemia = tested on: HL-60(TB) leukemia
# HOP-62 NSCLC = tested on: HOP-62 NSCLC
# HOP-92 NSCLC = tested on: HOP-92 NSCLC
# HS 578T breast = tested on: HS 578T breast
# HT29 colon = tested on: HT29 colon
# IGROV1 ovarian = tested on: IGROV1 ovarian
# K-562 leukemia = tested on: K-562 leukemia
# KM12 colon = tested on: KM12 colon
# M14 melanoma = tested on: M14 melanoma
# MALME-3M melanoma = tested on: MALME-3M melanoma
# MCF7 breast = tested on: MCF7 breast
# MDA-MB-231 breast = tested on: MDA-MB-231 breast
# MDA-MB-435 = tested on: MDA-MB-435
# MDA-N = tested on: MDA-N
# MOLT-4 leukemia = tested on: MOLT-4 leukemia
# NCI-H226 lung = tested on: NCI-H226 lung
# NCI-H23 lung = tested on: NCI-H23 lung
# NCI-H460 lung = tested on: NCI-H460 lung
# NCI-H522 lung = tested on: NCI-H522 lung
# NCI/ADR-RES ovarian = tested on: NCI/ADR-RES ovarian
# OVCAR-3 ovarian = tested on: OVCAR-3 ovarian
# OVCAR-4 ovarian = tested on: OVCAR-4 ovarian
# OVCAR-5 ovarian = tested on: OVCAR-5 ovarian
# OVCAR-8 ovarian = tested on: OVCAR-8 ovarian
# PC-3 prostate = tested on: PC-3 prostate
# RPMI-8226 leukemia = tested on: RPMI-8226 leukemia
# RXF 393 renal = tested on: RXF 393 renal
# SF-268 CNS = tested on: SF-268 CNS
# SF-295 CNS = tested on: SF-295 CNS
# SF-539 CNS = tested on: SF-539 CNS
# SK-MEL-2 melanoma = tested on: SK-MEL-2 melanoma
# SK-MEL-28 melanoma = tested on: SK-MEL-28 melanoma
# SK-MEL-5 melanoma = tested on: SK-MEL-5 melanoma
# SK-OV-3 ovarian = tested on: SK-OV-3 ovarian
# SN12C renal = tested on: SN12C renal
# SNB-19 CNS = tested on: SNB-19 CNS
# SNB-75 CNS = tested on: SNB-75 CNS
# SR leukemia = tested on: SR leukemia
# SW-620 colon = tested on: SW-620 colon
# T-47D breast = tested on: T-47D breast
# TK-10 renal = tested on: TK-10 renal
# U251 CNS = tested on: U251 CNS
# UACC-257 melanoma = tested on: UACC-257 melanoma
# UACC-62 melanoma = tested on: UACC-62 melanoma
# UO-31 renal = tested on: UO-31 renal
# LOX IMVI melanoma = tested on: LOX IMVI melanoma
smiles,measurement,setting,value
Cc1cc(=O)[nH]c2c3c(ccc12)OC(C)(C)C=C3,TGI,786-0 renal,> 62.7 µM
same,TGI,A498 renal,> 87.7 µM
same,TGI,A549 NSCLC,> 100 µM
same,TGI,ACHN renal,> 100 µM
same,TGI,BT-549 breast,> 100 µM
same,TGI,CAKI-1 renal,> 100 µM
same,TGI,CCRF-CEM leukemia,> 100 µM
same,TGI,COLO 205 colon,12.2 µM
same,TGI,DU-145 prostate,> 100 µM
same,TGI,EKVX NSCLC,> 63.7 µM
same,TGI,HCC-2998 colon,> 96.1 µM
same,TGI,HCT-116 colon,> 50.1 µM
same,TGI,HCT-15 colon,> 100 µM
same,TGI,HL-60(TB) leukemia,> 100 µM
same,TGI,HOP-62 NSCLC,> 100 µM
same,TGI,HOP-92 NSCLC,> 100 µM
same,TGI,HS 578T breast,32.8 µM
same,TGI,HT29 colon,> 56.4 µM
same,TGI,IGROV1 ovarian,> 100 µM
same,TGI,K-562 leukemia,> 100 µM
same,TGI,KM12 colon,> 100 µM
same,TGI,M14 melanoma,> 100 µM
same,TGI,MALME-3M melanoma,> 100 µM
same,TGI,MCF7 breast,> 100 µM
same,TGI,MDA-MB-231 breast,> 100 µM
same,TGI,MDA-MB-435,4.9 µM
same,TGI,MDA-N,4.29 µM
same,TGI,MOLT-4 leukemia,> 100 µM
same,TGI,NCI-H226 lung,> 33.6 µM
same,TGI,NCI-H23 lung,> 100 µM
same,TGI,NCI-H460 lung,> 100 µM
same,TGI,NCI-H522 lung,67.4 µM
same,TGI,NCI/ADR-RES ovarian,> 100 µM
same,TGI,OVCAR-3 ovarian,> 27.7 µM
same,TGI,OVCAR-4 ovarian,> 100 µM
same,TGI,OVCAR-5 ovarian,> 66.1 µM
same,TGI,OVCAR-8 ovarian,> 100 µM
same,TGI,PC-3 prostate,> 100 µM
same,TGI,RPMI-8226 leukemia,> 100 µM
same,TGI,RXF 393 renal,> 31.4 µM
same,TGI,SF-268 CNS,> 100 µM
same,TGI,SF-295 CNS,> 80.4 µM
same,TGI,SF-539 CNS,> 23.8 µM
same,TGI,SK-MEL-2 melanoma,> 100 µM
same,TGI,SK-MEL-28 melanoma,> 100 µM
same,TGI,SK-MEL-5 melanoma,> 100 µM
same,TGI,SK-OV-3 ovarian,> 82.9 µM
same,TGI,SN12C renal,> 49.6 µM
same,TGI,SNB-19 CNS,> 67.3 µM
same,TGI,SNB-75 CNS,87.9 µM
same,TGI,SR leukemia,> 100 µM
same,TGI,SW-620 colon,> 100 µM
same,TGI,T-47D breast,> 100 µM
same,TGI,TK-10 renal,> 100 µM
same,TGI,U251 CNS,> 47.4 µM
same,TGI,UACC-257 melanoma,> 100 µM
same,TGI,UACC-62 melanoma,> 100 µM
same,TGI,UO-31 renal,> 100 µM
CCOc1ccc2c(c1)NC(=O)C(C1OC(c3ccccc3)=CC1=O)S2 (stereo not drawn),TGI,786-0 renal,80.5 µM
same,TGI,A498 renal,> 100 µM
same,TGI,A549 NSCLC,46.8 µM
same,TGI,ACHN renal,> 100 µM
same,TGI,BT-549 breast,65.9 µM
same,TGI,CAKI-1 renal,> 100 µM
same,TGI,CCRF-CEM leukemia,10.9 µM
same,TGI,COLO 205 colon,28.1 µM
same,TGI,DU-145 prostate,> 100 µM
same,TGI,EKVX NSCLC,62.3 µM
same,TGI,HCC-2998 colon,37.7 µM
same,TGI,HCT-116 colon,88.2 µM
same,TGI,HCT-15 colon,69.2 µM
same,TGI,HL-60(TB) leukemia,> 100 µM
same,TGI,HOP-62 NSCLC,> 100 µM
same,TGI,HS 578T breast,86 µM
same,TGI,HT29 colon,39.6 µM
same,TGI,IGROV1 ovarian,53.2 µM
same,TGI,K-562 leukemia,68.7 µM
same,TGI,KM12 colon,66.3 µM
same,TGI,LOX IMVI melanoma,67 µM
same,TGI,M14 melanoma,> 100 µM
same,TGI,MALME-3M melanoma,44.5 µM
same,TGI,MCF7 breast,30.4 µM
same,TGI,MDA-MB-231 breast,60.5 µM
same,TGI,MDA-MB-435,44.4 µM
same,TGI,MDA-N,77.4 µM
same,TGI,NCI-H226 lung,67.5 µM
same,TGI,NCI-H23 lung,94.2 µM
same,TGI,NCI-H460 lung,39 µM
same,TGI,NCI-H522 lung,25.7 µM
same,TGI,NCI/ADR-RES ovarian,67.1 µM
same,TGI,OVCAR-3 ovarian,50.1 µM
same,TGI,OVCAR-5 ovarian,36.5 µM
same,TGI,OVCAR-8 ovarian,55.7 µM
same,TGI,PC-3 prostate,51.4 µM
same,TGI,RPMI-8226 leukemia,30.5 µM
same,TGI,RXF 393 renal,42.8 µM
same,TGI,SF-268 CNS,63.1 µM
same,TGI,SF-295 CNS,83.5 µM
same,TGI,SF-539 CNS,45 µM
same,TGI,SK-MEL-2 melanoma,> 100 µM
same,TGI,SK-MEL-28 melanoma,68.8 µM
same,TGI,SK-MEL-5 melanoma,39.2 µM
same,TGI,SK-OV-3 ovarian,52.8 µM
same,TGI,SN12C renal,77.9 µM
same,TGI,SNB-19 CNS,> 100 µM
same,TGI,SR leukemia,46.1 µM
same,TGI,SW-620 colon,88.8 µM
same,TGI,T-47D breast,36.3 µM
same,TGI,TK-10 renal,> 100 µM
same,TGI,U251 CNS,49.2 µM
same,TGI,UACC-257 melanoma,> 100 µM
same,TGI,UACC-62 melanoma,35.1 µM
same,TGI,UO-31 renal,90.3 µM
